In PubChem BioAssay AID330 (DTP/NCI, 2004):
Several values for one entry are separate records, joined by “and”; a condition that tells them apart may be missing. Equal entries are not always repeated. Toxic doses and inconclusive results are not listed. Rule for the calls: active = survival T/C of 150% or more; inactive = T/C below 125% in these data.

Tested on: P388 leukemia ip, CD2F1 mice, survival T/C
Experiment: NCI In Vivo Anticancer Drug Screen. Data for tumor model P388 Leukemia (intraperitoneal) in CD2F1 (CDF1) mice
Conditions: endpoint: median survival time, higher = longer survival
Method in brief: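 Mice carrying the transplanted tumor received test compound or vehicle. Survival was recorded in each group, and the value is the treated-group measurement divided by that of the vehicle-treated control group.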

Measured: T/C

CC1(CO)C(O)CCC2(C)C1CCC1CC3CC12CCC3(O)CO (stereo not given)
inactive: dose: 0.78 mg/kg/injection, schedule: Q03HX024 (ip), vehicle: Klucel (hydroxypropylcellulose) (HPC) 106 % of control | dose: 0.78 mg/kg/injection, schedule: Q03HX024 (oral), vehicle: Klucel (hydroxypropylcellulose) (HPC) 100 % of control | dose: 1.56 mg/kg/injection, schedule: Q03HX024 (ip), vehicle: Klucel (hydroxypropylcellulose) (HPC) 93 % of control | dose: 1.56 mg/kg/injection, schedule: Q03HX024 (oral), vehicle: Klucel (hydroxypropylcellulose) (HPC) 99 % of control | dose: 3.12 mg/kg/injection, schedule: Q03HX024 (ip), vehicle: Klucel (hydroxypropylcellulose) (HPC) 100 % of control | dose: 3.12 mg/kg/injection, schedule: Q03HX024 (oral), vehicle: Klucel (hydroxypropylcellulose) (HPC) 102 % of control | dose: 6.25 mg/kg/injection, schedule: Q03HX024 (ip), vehicle: Klucel (hydroxypropylcellulose) (HPC) 102 % of control | dose: 6.25 mg/kg/injection, schedule: Q03HX024 (oral), vehicle: Klucel (hydroxypropylcellulose) (HPC) 98 % of control | dose: 12.5 mg/kg/injection, schedule: Q01DX009 (ip), vehicle: Klucel (hydroxypropylcellulose) (HPC) 109 % of control and 113 % of control | dose: 12.5 mg/kg/injection, schedule: Q03HX024 (ip), vehicle: Klucel (hydroxypropylcellulose) (HPC) 106 % of control | dose: 12.5 mg/kg/injection, schedule: Q03HX024 (oral), vehicle: Klucel (hydroxypropylcellulose) (HPC) 100 % of control | dose: 25.0 mg/kg/injection, schedule: Q01DX009 (ip), vehicle: Klucel (hydroxypropylcellulose) (HPC) 114 % of control and 91 % of control | dose: 25.0 mg/kg/injection, schedule: Q01DX009 (ip), vehicle: saline with Tween-80 112 % of control | dose: 25.0 mg/kg/injection, schedule: Q03HX024 (ip), vehicle: Klucel (hydroxypropylcellulose) (HPC) 119 % of control | dose: 25.0 mg/kg/injection, schedule: Q03HX024 (oral), vehicle: Klucel (hydroxypropylcellulose) (HPC) 100 % of control | dose: 25.0 mg/kg/injection, schedule: Q04DX003 (ip), vehicle: Klucel (hydroxypropylcellulose) (HPC) 100 % of control | dose: 30.0 mg/kg/injection, schedule: Q01DX005 (iv), vehicle: saline with Tween-80 109 % of control | dose: 50.0 mg/kg/injection, schedule: Q01DX009 (ip), vehicle: saline with Tween-80 115 % of control | dose: 50.0 mg/kg/injection, schedule: Q03HX024 (ip), vehicle: Klucel (hydroxypropylcellulose) (HPC) 120 % of control | dose: 50.0 mg/kg/injection, schedule: Q03HX024 (oral), vehicle: Klucel (hydroxypropylcellulose) (HPC) 101 % of control | dose: 50.0 mg/kg/injection, schedule: Q04DX002 (ip), vehicle: Klucel (hydroxypropylcellulose) (HPC) 97 % of control | dose: 50.0 mg/kg/injection, schedule: Q04DX003 (ip), vehicle: Klucel (hydroxypropylcellulose) (HPC) 103 % of control | dose: 60.0 mg/kg/injection, schedule: Q01DX005 (iv), vehicle: saline with Tween-80 107 % of control | dose: 60.0 mg/kg/injection, schedule: Q01DX005 (oral), vehicle: saline with Tween-80 107 % of control | dose: 75.0 mg/kg/injection, schedule: Q04DX002 (ip), vehicle: Klucel (hydroxypropylcellulose) (HPC) 105 % of control | dose: 100.0 mg/kg/injection, schedule: Q01DX009 (ip), vehicle: saline with Tween-80 121 % of control | dose: 100.0 mg/kg/injection, schedule: Q03HX024 (oral), vehicle: Klucel (hydroxypropylcellulose) (HPC) 111 % of control | dose: 100.0 mg/kg/injection, schedule: Q04DX002 (ip), vehicle: Klucel (hydroxypropylcellulose) (HPC) 100 % of control | dose: 100.0 mg/kg/injection, schedule: Q04DX003 (ip), vehicle: Klucel (hydroxypropylcellulose) (HPC) 114 % of control | dose: 120.0 mg/kg/injection, schedule: Q01DX005 (iv), vehicle: saline with Tween-80 100 % of control | dose: 120.0 mg/kg/injection, schedule: Q01DX005 (oral), vehicle: saline with Tween-80 103 % of control | dose: 150.0 mg/kg/injection, schedule: Q04DX002 (ip), vehicle: Klucel (hydroxypropylcellulose) (HPC) 111 % of control | dose: 200.0 mg/kg/injection, schedule: Q01DX009 (ip), vehicle: Klucel (hydroxypropylcellulose) (HPC) 92 % of control and 96 % of control | dose: 200.0 mg/kg/injection, schedule: Q01DX009 (ip), vehicle: saline with Tween-80 105 % of control | dose: 200.0 mg/kg/injection, schedule: Q01DX009 (oral), vehicle: saline with Tween-80 100 % of control | dose: 200.0 mg/kg/injection, schedule: Q04DX002 (ip), vehicle: Klucel (hydroxypropylcellulose) (HPC) 105 % of control | dose: 200.0 mg/kg/injection, schedule: Q04DX003 (ip), vehicle: Klucel (hydroxypropylcellulose) (HPC) 119 % of control | dose: 240.0 mg/kg/injection, schedule: Q01DX005 (ip), vehicle: saline with Tween-80 109 % of control | dose: 240.0 mg/kg/injection, schedule: Q01DX005 (iv), vehicle: saline with Tween-80 106 % of control | dose: 240.0 mg/kg/injection, schedule: Q01DX005 (oral), vehicle: saline with Tween-80 102 % of control | dose: 300.0 mg/kg/injection, schedule: Q04DX002 (ip), vehicle: Klucel (hydroxypropylcellulose) (HPC) 115 % of control | dose: 400.0 mg/kg/injection, schedule: Q01DX009 (oral), vehicle: saline with Tween-80 103 % of control | dose: 400.0 mg/kg/injection, schedule: Q04DX002 (ip), vehicle: Klucel (hydroxypropylcellulose) (HPC) 117 % of control | dose: 480.0 mg/kg/injection, schedule: Q01DX005 (oral), vehicle: saline with Tween-80 107 % of control | dose: 600.0 mg/kg/injection, schedule: Q04DX002 (ip), vehicle: Klucel (hydroxypropylcellulose) (HPC) 117 % of control | dose: 800.0 mg/kg/injection, schedule: Q01DX009 (oral), vehicle: saline with Tween-80 103 % of control | dose: 800.0 mg/kg/injection, schedule: Q04DX002 (ip), vehicle: Klucel (hydroxypropylcellulose) (HPC) 108 % of control | dose: 800.0 mg/kg/injection, schedule: Q04DX003 (ip), vehicle: Klucel (hydroxypropylcellulose) (HPC) 102 % of control | dose: 1200.0 mg/kg/injection, schedule: Q04DX002 (ip), vehicle: Klucel (hydroxypropylcellulose) (HPC) 118 % of control | dose: 1600.0 mg/kg/injection, schedule: Q01DX009 (oral), vehicle: saline with Tween-80 88 % of control
